According to patent US20060069132A1, “Azolecarboxamide herbicides” (priority 2004, published 2006):

Key:
barnyardgrass [1] = assay: Test B flooded paddy test; type: in vivo, Echinochloa crus-galli; details: 1000 g ai/ha, visual rating, scale 0 to 100 (0 no effect, 100 complete control), 13 to 15 days
Summary of the method: (§1)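 Greenhouse test; postemergence application to plants at 1–4 leaves (2–18 cm); paddy species at 2 leaves; evaluated visually vs controls at 13–15 days; scale 0–100 (100 = complete control).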

large crabgrass = assay: Test B pre-/postemergence herbicide test; type: in vivo, Digitaria sanguinalis
Summary of the method: (§2)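 Flooded paddy rice and barnyardgrass were treated at the 2-leaf stage; upland plantings received compound either on sown seed or on 1- to 4-leaf seedlings. All were kept 13–15 days in a greenhouse and scored visually, 0–100, relative to untreated plants.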

Surinam grass = assay: Test B pre-/postemergence herbicide test; type: in vivo, Urochloa decumbens
Summary of the method: as §2

barnyardgrass [2] = assay: Test B pre-/postemergence herbicide test; type: in vivo, Echinochloa crus-galli
Summary of the method: (§3)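 Greenhouse pot assay with simultaneous preemergence (treated seed) and postemergence (2–18 cm seedlings) applications of surfactant-containing, non-phytotoxic solvent formulations. Response scored visually 13–15 days later on a 0–100 scale, 100 meaning complete control.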

velvetleaf = assay: Test B pre-/postemergence herbicide test; type: in vivo, Abutilon theophrasti
Summary of the method: as §2

rice [3] = assay: Test C flooded paddy test; type: in vivo, Oryza sativa
Summary of the method: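 Postemergence sprays applied to plants 2 to 18 cm tall (1- to 4-leaf stage); paddy species grown to 2-leaf stage under flooding. After 12 to 14 days in greenhouse, visual rating versus untreated controls on 0–100 scale (0 no effect, 100 complete control).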

rice [4] = assay: Test B flooded paddy test; type: in vivo, Oryza sativa; details: 1000 g ai/ha, visual rating, scale 0 to 100 (0 no effect, 100 complete control), 13 to 15 days
Summary of the method: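 After treating 2-leaf paddy plants or 2–18 cm postemergence plants (1 to 4 leaves) with formulated chemical, researchers kept them in a greenhouse for 13–15 days. Effects were judged visually versus controls: 0 indicates none, 100 total control.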

rice [5] = assay: Test B pre-/postemergence herbicide test; type: in vivo, Oryza sativa; details: preemergence
Summary of the method: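 Evaluation is visual, comparing treated with control plants on a scale where 0 means no effect and 100 means full control. Treatments were preemergence, or postemergence on seedlings 2–18 cm tall, and held 13–15 days in the greenhouse.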

pigweed = assay: Test B pre-/postemergence herbicide test; type: in vivo, Amaranthus retroflexus
Summary of the method: as §2

wheat = assay: Test B postemergence herbicide test; type: in vivo, Triticum aestivum; parameters: key to Wheat plant response rating: 0 = no effect, 100 = complete control; details: scale 0 (no effect) to 100 (complete control)
Summary of the method: (§4)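 Each value is a visual 0–100 response rating taken against controls 13 to 15 days after treatment in the greenhouse. Plants received formulated chemical postemergence at the 1- to 4-leaf stage or, in flooded paddy, at the 2-leaf stage.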

[6] = test system: small flower umbrella sedge; assay: Test B flooded paddy test; type: in vivo, Cyperus difformis; details: 1000 g ai/ha, visual rating, scale 0 to 100 (0 no effect, 100 complete control), 13 to 15 days
Summary of the method: as §1

blackgrass = assay: Test B postemergence herbicide test; type: in vivo, Alopecurus myosuroides; details: scale 0 (no effect) to 100 (complete control)
Summary of the method: as §1

wild oat = assay: Test B postemergence herbicide test; type: in vivo, Avena fatua; details: scale 0 (no effect) to 100 (complete control)
Summary of the method: as §4

[7] = test system: smallflower umbrella sedge; assay: Test C flooded paddy test; type: in vivo, Cyperus difformis
giant foxtail = assay: Test B pre-/postemergence herbicide test; type: in vivo, Setaria faberi
Summary of the method: as §2

cocklebur = assay: Test B pre-/postemergence herbicide test; type: in vivo, Xanthium strumarium
Summary of the method: as §3

morningglory = assay: Test B pre-/postemergence herbicide test; type: in vivo, Ipomoea coccinea
Summary of the method: as §3

ducksalad [8] = assay: Test B flooded paddy test; type: in vivo, Heteranthera limosa; details: 1000 g ai/ha, visual rating, scale 0 to 100 (0 no effect, 100 complete control), 13 to 15 days
Summary of the method: as §1

corn = assay: Test B pre-/postemergence herbicide test; type: in vivo, Zea mays
Summary of the method: as §2

barnyardgrass [9] = assay: Test C flooded paddy test; type: in vivo, Echinochloa crus-galli
Summary of the method: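 Ratings (0 = no effect, 100 = complete control) come from visual comparison with untreated plants after 12 to 14 days in the greenhouse. Treatment was postemergence at the 1- to 4-leaf stage (2–18 cm), or at the 2-leaf stage for the flooded paddy barnyardgrass.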

ducksalad [10] = assay: Test C flooded paddy test; type: in vivo, Heteranthera limosa
lambsquarters = assay: Test B pre-/postemergence herbicide test; type: in vivo, Chenopodium album
Summary of the method: as §2

[11] = 500 g ai/ha, visual rating 0-100, 0 no effect, 100 complete control, preemergence
[12] = Postemergence, 500 g ai/ha, visual rating after 13 to 15 days, scale 0 (no effect) to 100 (complete control)
[13] = postemergence, 125 g ai/ha, visual rating, scale 0 (no effect) to 100 (complete control)
[14] = preemergence, 125 g ai/ha, 0 to 100 scale, 0 is no effect, 100 is complete control
[15] = 62 g ai/ha, scale 0 to 100 (0 no effect, 100 complete control)
[16] = 125 g ai/ha, scale of 0 to 100, 0 is no effect, 100 is complete control
[17] = 250 g ai/ha, scale of 0 to 100, 0 is no effect, 100 is complete control
[18] = 500 g ai/ha, visual rating after 12 to 14 days, scale 0 to 100 (0 no effect, 100 complete control)
[19] = Postemergence, 500 g ai/ha, visual rating after 13 to 15 days
[20] = postemergence, 125 g ai/ha, visual rating

CCn1nc(C(C)(C)C)cc1C(=O)Nc1ccc(OC)c(C(=O)OC(C)C)c1 [Compound 101]
40: Plant response rating, Barnyardgrass (barnyardgrass [2]; [14]) | Plant response rating, Rice (rice [5]; 500 g ai/ha, visual rating 0-100, 0 no effect, 100 complete control) | Plant response rating, Blackgrass (blackgrass; [19]) | Plant response rating, Corn (corn; [11]) | Plant response rating, Corn (corn; [12]) | Ducksalad plant response rating (ducksalad [10]; [17])
70: Barnyardgrass plant response rating (barnyardgrass [1]) | Plant response rating, Barnyardgrass (barnyardgrass [2]; [11])
60: Plant response rating, Foxtail, Giant (giant foxtail; [11])
90: Plant response rating, Crabgrass, Large (large crabgrass; [11]) | Plant response rating, Pigweed (pigweed; [12]) | Plant response rating, Sedge, Umbrella [7, 18] | Plant response rating, Cocklebur (cocklebur; [11]) | Ducksalad plant response rating (ducksalad [8]) | Plant response rating, Lambsquarters (lambsquarters; [12])
10: Crabgrass, Large plant response rating (large crabgrass; [13]) | Surinam Grass plant response rating (Surinam grass; [13]) | Plant response rating, Surinam Grass (Surinam grass; [14]) | Barnyardgrass plant response rating (barnyardgrass [2]; [13]) | Wheat plant response rating (wheat; [20]) | Plant response rating, Morningglory (morningglory; [11]) | Plant response rating, Morningglory (morningglory; [12]) | Morningglory plant response rating (morningglory; [13]) | Plant response rating, Morningglory (morningglory; [14]) | Corn plant response rating (corn; [13])
20: Plant response rating, Crabgrass, Large (large crabgrass; [12]) | Plant response rating, Surinam Grass (Surinam grass; [12]) | Plant response rating, Barnyardgrass (barnyardgrass [2]; [12]) | Velvetleaf plant response rating (velvetleaf; [13]) | Plant response rating, Velvetleaf (velvetleaf; [14]) | Plant response rating, Wheat (wheat; [19]) | Blackgrass plant response rating (blackgrass; [20]) | Sedge, Umbrella plant response rating [7, 15] | Foxtail, Giant plant response rating (giant foxtail; [13]) | Plant response rating, Foxtail, Giant (giant foxtail; [14]) | Cocklebur plant response rating (cocklebur; [13]) | Plant response rating, Corn (corn; [14]) | Barnyardgrass plant response rating (barnyardgrass [9]; [16])
30: Plant response rating, Surinam Grass (Surinam grass; [11]) | Plant response rating, Velvetleaf (velvetleaf; [12]) | Plant response rating, Rice (rice [5]; 125 g ai/ha, 0 to 100 scale, 0 is no effect, 100 is complete control) | Oat, Wild plant response rating (wild oat; [20]) | Plant response rating, Foxtail, Giant (giant foxtail; [12]) | Barnyardgrass plant response rating (barnyardgrass [9]; [17])
25: Plant response rating, Rice (rice [3]; [18])
80: Rice plant response rating (rice [4]) | Pigweed plant response rating (pigweed; [13]) | Sedge, Umbrella plant response rating [6] | Sedge, Umbrella plant response rating [7, 17] | Plant response rating, Cocklebur (cocklebur; [12]) | Lambsquarters plant response rating (lambsquarters; [13])
0: Rice plant response rating (rice [3]; [15]) | Rice plant response rating (rice [3]; [16]) | Rice plant response rating (rice [3]; [17]) | Plant response rating, Cocklebur (cocklebur; [14]) | Barnyardgrass plant response rating (barnyardgrass [9]; [15]) | Ducksalad plant response rating (ducksalad [10]; [15]) | Ducksalad plant response rating (ducksalad [10]; [16])
50: Plant response rating, Crabgrass, Large (large crabgrass; [14]) | Plant response rating, Velvetleaf (velvetleaf; [11]) | Plant response rating, Oat, Wild (wild oat; [19]) | Plant response rating, Barnyardgrass (barnyardgrass [9]; [18])
75: Sedge, Umbrella plant response rating [7, 16] | Plant response rating, Ducksalad (ducksalad [10]; [18])
100: Plant response rating, Pigweed (pigweed; [11]) | Plant response rating, Pigweed (pigweed; [14]) | Plant response rating, Lambsquarters (lambsquarters; [11]) | Plant response rating, Lambsquarters (lambsquarters; [14])
